Here are results for 16 compounds from publication PMC3071374, “High Throughput Screens Yield Small Molecule Inhibitors of Leishmania CRK3:CYC6 Cyclin-Dependent Kinase” (PLoS Neglected Tropical Diseases, 2011).

One assay deals with WT promastigote L. major. Description: L. major promastigote growth inhibition assay (resazurin). Particulars: BioFocus SFK48 HTS hits; 5 days at 25°C; read-out: IC50 against WT promastigote L. major. Format: cell-based. How it is done: L. major wild type promastigotes (Friedlin strain: WHO designation MHOM/JL/81/Friedlin) were grown at 25°C in HOMEM medium (Invitrogen cat no. 041-94699111) supplemented with 10% (v/v) heat inactivated foetal calf serum (HIFCS) and 1% (v/v) penicillin/streptomycin antibiotics.
CRK3 inhibitors were diluted into HOMEM medium supplemented with 10% HIFCS at twice the final screening concentration. Five-fold or ten-fold serial dilutions were carried out into HOMEM medium supplemented with 10% HIFCS. 100 µl of each drug concentration were added to a 96 well plate in duplicate. 100 µl of five-fold or ten-fold serial dilutions of 1 mM Pentamidine (Sigma) and an equivalent volume of 100% DMSO were included as positive and negative controls, in duplicate, respectively. L. major promastigote cells were diluted to a cell density of 2×10^6 cells ml^−1 in HOMEM media supplemented with 10% HIFCS and 100 µl added to all wells in 96 well plates. Plates were sealed with parafilm and incubated for 5 days at 25°C. After 5 days, 20 µl of filter sterile resazurin solution (12.5 mg resazurin salt in 100 ml PBS) (Sigma) was added to each of the wells and the plate incubated for a further 24 hours at 25°C. Fluorescence was measured using an Envision plate reader (Perkin Elmer) at 540 nm excitation wavelength and 590 nm emission wavelength.
In general terms: The colour change of resazurin is a common sign of viable cells or microbes.

Assay [1] has as its target T1, Leishmania CRK3:CYC6 (Leishmania major, UniProt O96526). Format: biochemical. Particulars: BioFocus SFK48 HTS hits, rescreen. Here is the method: (§1) Leishmania CRK3:CYC6 protein kinase assays were performed in 96-well microtiter plates in a final volume of 25 µl. Each assay point contained 7.5 ng of co-expressed histidine-tagged CRK3:CYC6 protein kinase complex (hereafter referred to as CRK3:CYC6) diluted in enzyme dilution buffer (EDB) (20 mM Tris-HCl pH 7.2, 0.5 mg ml^−1 BSA, 2.5% glycerol and 0.006% Brij-35). Assays were performed using the assay development buffer (ADB) (20 mM MOPS, pH 7.0, 25 mM β-glycerophosphate, 5 mM EGTA, 1 mM NaVO3, 1 mM DTT and 15 mM MgCl2) supplemented with 100 µM ATP, 0.5 µCi of γ-^32P ATP per reaction and histone H1 as a substrate used at 0.4 mg ml^−1. Two and three-fold titrations were set up to determine the concentration of enzyme to be used per assay point (7.5 ng) and to determine the concentrations of selected inhibitors required for 50% inhibition of Leishmania CRK3:CYC6 protein kinase activity (IC50 values), respectively. For IC50 determinations, assay mixes contained DMSO to a final concentration of 2%. Mammalian protein kinase assays were carried out according to the assay protocols developed at Cyclacel. Assays were carried out for 30 minutes at 30°C before stopping the reaction by the addition of an equal volume (25 µl) of 75 mM orthophosphoric acid. Samples were spotted onto a p81 cellulose filterplate (Nunc) and a vacuum applied. Wells were washed 3×200 µl with 75 mM phosphoric acid and the bottom of the plate sealed. 50 µl of Microscint 40 (Perkin Elmer) was added per well before incorporation of radioactivity was determined on a Topcount microplate scintillation counter.
Target sequence in this assay (Q4Q4U0 entry or part of it): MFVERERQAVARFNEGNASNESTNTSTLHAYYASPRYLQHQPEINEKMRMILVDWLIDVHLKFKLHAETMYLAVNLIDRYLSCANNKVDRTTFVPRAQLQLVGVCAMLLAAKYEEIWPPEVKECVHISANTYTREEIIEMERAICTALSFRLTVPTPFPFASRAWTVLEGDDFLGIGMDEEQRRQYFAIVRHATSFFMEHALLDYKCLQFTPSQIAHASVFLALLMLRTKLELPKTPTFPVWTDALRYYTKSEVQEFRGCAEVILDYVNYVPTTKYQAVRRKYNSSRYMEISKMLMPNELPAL
Target sequence in this assay (O96526 entry or part of it): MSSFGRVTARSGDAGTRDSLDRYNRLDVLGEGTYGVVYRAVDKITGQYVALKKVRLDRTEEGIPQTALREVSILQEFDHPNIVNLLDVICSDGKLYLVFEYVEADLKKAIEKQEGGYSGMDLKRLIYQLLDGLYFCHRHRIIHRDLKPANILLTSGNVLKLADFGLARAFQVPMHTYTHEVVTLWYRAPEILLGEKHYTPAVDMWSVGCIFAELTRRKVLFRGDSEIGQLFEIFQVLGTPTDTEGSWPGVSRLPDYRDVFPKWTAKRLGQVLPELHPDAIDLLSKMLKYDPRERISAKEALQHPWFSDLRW

Another assay concerns the target human CDK2:CycA (Homo sapiens, UniProt P24941). Description: Mammalian protein kinase assay / counter screen, CDK2:CYCA. Format: biochemical. Particulars: for IC50: BioFocus SFK48 HTS hits, re-screen; for activity towards CDK2:CycA in the primary screen: BioFocus SFK48 library, counter screen. Here is the method: as §1
For orientation: The purpose of a counterscreen is to sort out artefacts and off-target activity.

In assay [2] the target is T1, Leishmania CRK3:CYC6. Briefly: IMAP fluorescence polarisation high throughput screen of CRK3:CYC6. Further details: made in house; host or cells: E. coli BL21 (DE3) pLys-S. Particulars: BioFocus SFK48 library, primary concentration 20 µM. The format is biochemical, L. major. Here is the method:
(§2) Protein kinase assays were performed in 384-well non-treated black plates (Nunc) in a final volume of 20 µl. Each assay point contained 1.25 ng of co-expressed Leishmania CRK3:CYC6 protein kinase complex. […] The enzyme complex, peptide and ATP were made up in the IMAP complete reaction buffer (CRB) (10 mM Tris-HCl, pH 7.2, 10 mM MgCl2, 0.05% NaN3, 0.01% Tween-20 and 1 mM DTT). Assays were carried out for 1 hour 20 minutes at room temperature and the reaction stopped by the addition of 50 µl of the IMAP progressive binding reagent (Proprietary buffer from Molecular Devices plus tri-valent metal-containing nanoparticles). The assay was left to proceed for a further 1 hour 20 minutes at room temperature and the fluorescence polarization determined by a Perkin Elmer Fusion microplate reader, with excitation at 485 nm and emission at 535 nm.
Target sequence in this assay (O96526 entry or part of it): as above

The test system of a further assay is CRK3:CYC6. Particulars: peptide as substrate of CRK3:CYC6. Here is the method: as §2
Sequence of CRK3:CYC6 (O96526 entry or part of it): as above
The IMAP fluorescent polarisation assay was selected for the high throughput screen. First a substrate finder assay was carried out with 61 potential serine/threonine protein kinase substrates. […] In order to establish the quantity of CRK3:CYC6 to use in the IMAP HTS assays, a two-fold enzyme titration was carried out (Figure S2 in Supporting Information Text S1).

As usually defined, the IC50 is the concentration needed to halve the response being measured. On to `NC(c1ccccc1)c1csc(NC(=O)Nc2ccccc2)n1` (centres unmarked) [Compound 36], for which the IC50 in the assay with WT promastigote L. major is 26.8 µM; against Leishmania CRK3:CYC6 [1] it was 3.5 µM; against human CDK2:CycA, more than 20 µM.
As to `NC(c1ccccc1)c1csc(NC(=O)Nc2ccccc2Cl)n1` (centres unmarked) [Compound 37], the IC50 in the assay with WT promastigote L. major was 27.5 µM; on Leishmania CRK3:CYC6 [1] it was 4.8 µM; on human CDK2:CycA, more than 20 µM.
As to `COc1ccc(CC(N)c2csc(NC(=O)Nc3ccccc3Oc3ccccc3)n2)cc1` (centres unmarked) [Compound 38], the IC50 is 3.3 µM with WT promastigote L. major, 5 µM on Leishmania CRK3:CYC6 [1] and more than 20 µM at human CDK2:CycA.
As for `COc1ccc(C(N)c2csc(NC(=O)Nc3ccc(C(C)C)cc3)n2)cc1` (centres unmarked) [Compound 39], the IC50 is 3.8 µM in the assay with WT promastigote L. major, 7.5 µM at Leishmania CRK3:CYC6 [1] and more than 20 µM against human CDK2:CycA.
`CC(C)c1ccccc1NC(=O)Nc1nc(C2CCC(=O)N2)cs1` (centres unmarked) [Compound 40]: the figures for the IC50 in the assay on WT promastigote L. major, against Leishmania CRK3:CYC6 [1] and on human CDK2:CycA were more than 50 µM, 7.8 µM and more than 20 µM, respectively.
On to `Cc1ccccc1NC(=O)Nc1nc(C(N)c2ccccc2Cl)cs1` (centres unmarked) [Compound 41], for which the IC50 was 26.1 µM in the assay on WT promastigote L. major, 9 µM at Leishmania CRK3:CYC6 [1] and more than 20 µM at human CDK2:CycA.
As for `NC(c1ccccc1)c1csc(NC(=O)Nc2ccc(OC(F)(F)F)cc2)n1` (centres unmarked) [Compound 42], the figures for the IC50 in the assay with WT promastigote L. major, on Leishmania CRK3:CYC6 [1] and at human CDK2:CycA were 6.9 µM, 10 µM and more than 20 µM, respectively.
For the compound `NC(c1csc(NC(=O)Nc2cccc(Cl)c2)n1)c1ccccc1Cl` (centres unmarked) [Compound 43], in the assay with WT promastigote L. major, the IC50 is 12.5 µM. In addition, at human CDK2:CycA, the “activity towards CDK2:CycA in the primary screen” value (“activity towards CDK2:CycA” below) is given as “active”. At Leishmania CRK3:CYC6 [2], the “activity towards CRK3:CYC6 in the primary screen” value (shortened to “activity towards CRK3:CYC6”) is on record as “active”.
For `CN(C)Cc1csc(NC(=O)Nc2ccccc2Oc2ccccc2)n1` [Compound 44], the IC50 in the assay with WT promastigote L. major turned out to be 14.4 µM. Moreover, the “activity towards CDK2:CycA” value at human CDK2:CycA was “active”. At Leishmania CRK3:CYC6 [2], the “activity towards CRK3:CYC6” value is reported as “active”.
As for `COc1ccc(CC(N)c2csc(NC(=O)Nc3cc(OC)ccc3OC)n2)cc1` (centres unmarked) [Compound 45], in the assay on WT promastigote L. major, the concentration for half-maximal inhibition (IC50) was 6.8 µM. Besides, the “activity towards CDK2:CycA” value on human CDK2:CycA is “inactive”. The “activity towards CRK3:CYC6” value on Leishmania CRK3:CYC6 [2] is “inactive”.
Regarding `COc1ccc(CNC(=O)Nc2nc(C(N)CCc3ccccc3)cs2)cc1` (centres unmarked) [Compound 46], the IC50 with WT promastigote L. major came to 7.8 µM. On human CDK2:CycA, the “activity towards CDK2:CycA” value was “inactive”. Also, on Leishmania CRK3:CYC6 [2], the “activity towards CRK3:CYC6” value was “inactive”.
FLAKSFGSPNRAYKK [CDK7 derived]: in the assay with CRK3:CYC6, the ΔmP signal is recorded as 180 mP.
Same read-out and setting: as for GGGPATPKKAKKL [Histone H1 derived], the figure is 295 mP; as for GGGRSPGRRRRK [Generic Sequence], 310 mP; as for “PKTPKKAKKL [Histone H1 derived (aa 9–18)]”, 280 mP.
As to RRRFRPASPLRGPPK [DYRKtide], the ΔmP signal in the assay with CRK3:CYC6 is recorded as 190 mP.
